In US9763942B2, “Serine/threonine kinase inhibitors” (Array BioPharma Inc., priority 2013, dated 2017):

Each compound was assayed against T1, human ERK-2 (Mitogen Activated Kinase 1) (Homo sapiens, UniProt P28482) (assay: ERK-2 Enzymatic Assay). Settings: ERK-2 enzymatic assay; read-out: IC50.
T1 construct: n-terminal 6-His fusion protein in E. coli and corresponding to aa 8-360; 6-His (N); made in house; host or cells: E. coli
Format: biochemical
Excerpt: Table 1 contains representative data for Examples disclosed herein.

T1 sequence (P28482 8-360): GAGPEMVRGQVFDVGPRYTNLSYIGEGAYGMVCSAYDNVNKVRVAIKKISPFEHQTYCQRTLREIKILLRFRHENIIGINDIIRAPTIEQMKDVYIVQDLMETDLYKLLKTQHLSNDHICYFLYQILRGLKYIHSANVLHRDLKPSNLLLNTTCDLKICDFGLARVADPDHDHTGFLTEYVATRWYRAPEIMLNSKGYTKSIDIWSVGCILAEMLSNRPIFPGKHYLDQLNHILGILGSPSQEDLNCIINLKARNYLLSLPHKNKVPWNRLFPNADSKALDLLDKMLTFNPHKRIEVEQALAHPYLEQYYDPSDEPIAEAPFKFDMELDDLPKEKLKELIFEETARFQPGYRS

IC50 [nM] | Structure (SMILES)
< 100 | CN1C[C@@H](n2nnc3cc(-c4ccnc(Nc5ccnn5C)n4)ccc32)[C@H](c2cc(F)cc(F)c2)C1 [Example 76, 4-(1-((3S,4R)-4-(3,5-difluorophenyl)-1-methylpyrrolidin-3-yl)-1H-benzo[d][1,2,3]triazol-5-yl)-N-(1-methyl-1H-pyrazol-5-yl)pyrimidin-2-amine]
< 100 | Cn1nccc1Nc1nccc(-c2ccc3c(c2)nnn3Cc2cccc(F)c2)n1 [Example 120, 4-(1-(3-fluorobenzyl)-1H-benzo[d][1,2,3]triazol-5-yl)-N-(1-methyl-1H-pyrazol-5-yl)pyrimidin-2-amine]
< 100 | Cn1nccc1Nc1nccc(-c2ccc3c(c2)nnn3CC2CN(C(=O)OC(C)(C)C)C2)n1 [Example 63, tert-butyl 3-((5-(2-((1-methyl-1H-pyrazol-5-yl)amino)pyrimidin-4-yl)-1H-benzo[d][1,2,3]triazol-1-yl)methyl)azetidine-1-carboxylate]
< 100 | COc1ccc(Cn2nnc3cc(-c4ccnc(NC(C)C)n4)ccc32)cc1F [Example 13, 4-(1-(3-fIuoro-4-methoxybenzyl)-1H-benzo[d][1,2,3]triazol-5-yl)-N-isopropylpyrimidin-2-amine]
< 100 | CC(C)Cn1nnc2cc(-c3ccnc(Nc4cnn(C)c4)n3)ccc21 [Example 97, 4-(1-isobutyl-1H-benzo[d][1,2,3]triazol-5-yl)-N-(1-methyl-1H-pyrazol-4-yl)pyrimidin-2-amine]
< 100 | COC(C)Cn1nnc2cc(-c3ccnc(Nc4ccnn4C)n3)ccc21 (stereo not drawn) [Example 30, 4-(1-(2-methoxypropyl)-1H-benzo[d][1,2,3]triazol-5-yl)-N-(1-methyl-1H-pyrazol-5-yl)pyrimidin-2-amine]
< 100 | COc1ccc(Cn2nnc3cc(-c4ccnc(NCC(C)(C)CO)n4)ccc32)cc1F [Example 16]
< 100 | Cn1nccc1Cn1nnc2cc(-c3ccnc(Nc4ccnn4C)n3)ccc21 [Example 39, N-(1-methyl-1H-pyrazol-5-yl)-4-(1-((1-methyl-1H-pyrazol-5-yl)methyl)-1H-benzo[d][1,2,3]triazol-5-yl)pyrimidin-2-amine]
< 100 | COc1ccc(Cn2nnc3cc(-c4ccnc(NC5(C)COC5)n4)ccc32)cc1F [Example 21, 4-(1-(3-fluoro-4-methoxybenzyl)-1H-benzo[d][1,2,3]triazol-5-yl)-N-(3-methyloxetan-3-yl)pyrimidin-2-amine]
< 100 | Cn1nccc1Nc1nccc(-c2ccc3c(c2)nnn3Cc2ccc(F)c(Cl)c2)n1 [Example 125, 4-(1-(3-chloro-4-fluorobenzyl)-1H-benzo[d][1,2,3]triazol-5-yl)-N-(1-methyl-1H-pyrazol-5-yl)pyrimidin-2-amine]
< 100 | Cn1nccc1Nc1nccc(-c2ccc3c(c2)nnn3Cc2cccc(C(F)(F)F)n2)n1 [Example 52, N-(1-methyl-1H-pyrazol-5-yl)-4-(1-((6-(trifluoromethyl)pyridin-2-yl)methyl)-1H-benzo[d][1,2,3]triazol-5-yl)pyrimidin-2-amine]
< 100 | Cc1ncccc1Cn1nnc2cc(-c3ccnc(Nc4ccnn4C)n3)ccc21 [Example 53, N-(1-methyl-1H-pyrazol-5-yl)-4-(1-((2-methylpyridin-3-yl)methyl)-1H-benzo[d][1,2,3]triazol-5-yl)pyrimidin-2-amine]
< 100 | COc1ccc([C@@H](CO)n2nnc3cc(-c4ccnc(Nc5ccnn5C)n4)ccc32)cc1F [Example 95, (S)-2-(3-fluoro-4-methoxyphenyl)-2-(5-(2-((1-methyl-1H-pyrazol-5-yl)amino)pyrimidin-4-yl)-1H-benzo[d][1,2,3]triazol-1-yl)ethanol]
< 100 | COCCCn1nnc2cc(-c3ccnc(Nc4ccnn4C)n3)ccc21 [Example 42, 4-(1-(3-methoxypropyl)-1H-benzo[d][1,2,3]triazol-5-yl)-N-(1-methyl-1H-pyrazol-5-yl)pyrimidin-2-amine]
< 100 | Cn1nccc1Nc1nccc(-c2ccc3c(c2)nnn3CC2(C)CCC2)n1 [Example 48, N-(1-methyl-1H-pyrazol-5-yl)-4-(1-((1-methylcyclobutyl)methyl)-1H-benzo[d][1,2,3]triazol-5-yl)pyrimidin-2-amine]
< 100 | COc1cccnc1Cn1nnc2cc(-c3ccnc(Nc4ccnn4C)n3)ccc21 [Example 68, 4-(1-((3-methoxypyridin-2-yl)methyl)-1H-benzo[d][1,2,3]triazol-5-yl)-N-(1-methyl-1H-pyrazol-5-yl)pyrimidin-2-amine]
< 100 | COc1cccc(F)c1CN1C[C@H](n2nnc3cc(-c4ccnc(Nc5ccnn5C)n4)ccc32)CC(F)(F)C1 [Example 106, (R)-4-(1-(5,5-difluoro-1-(2-fluoro-6-methoxybenzyl)piperidin-3-yl)-1H-benzo[d][1,2,3]triazol-5-yl)-N-(1-methyl-1H-pyrazol-5-yl)pyrimidin-2-amine]
< 100 | CCC(C)Cn1nnc2cc(-c3ccnc(Nc4ccnn4C)n3)ccc21 (stereo not drawn) [Example 27]

IC50 [nM] | Structure (SMILES)
< 100 | COc1ccc(Cn2nnc3cc(-c4ccnc(Nc5cnn(C)c5)n4)ccc32)cc1F [Example 2, 4-(1-(3-fluoro-4-methoxybenzyl)-1H-benzo[d][1,2,3]triazol-5-yl)-N-(1-methyl-1H-pyrazol-4-yl)pyrimidin-2-amine]
< 100 | CC(C)OCCCn1nnc2cc(-c3ccnc(Nc4ccnn4C)n3)ccc21 [Example 102, 4-(1-(3-isopropoxypropyl)-1H-benzo[d][1,2,3]triazol-5-yl)-N-(1-methyl-1H-pyrazol-5-yl)pyrimidin-2-amine]
< 100 | COc1ccc(Cn2nnc3cc(-c4ccnc(NC5COC5)n4)ccc32)cc1F [Example 10, 4-(1-(3-fluoro-4-methoxybenzyl)-1H-benzo[d][1,2,3]triazol-5-yl)-N-(oxetan-3-yl)pyrimidin-2-amine]
< 100 | Cn1nccc1Nc1nccc(-c2ccc3c(c2)nnn3C2CNCCC2c2cccc(F)c2)n1 (stereo not drawn) [Example 89, 4-(1-(4-(3-fluorophenyl)piperidin-3-yl)-1H-benzoyl[d][1,2,3]triazol-5-yl)-N-(1-methyl-1H-pyrazol-5-yl)pyrimidin-2-amine]
< 100 | CCC(C)Cn1nnc2cc(-c3ccnc(Nc4cnn(C)c4)n3)ccc21 (stereo not drawn) [Example 96, N-(1-methyl-1H-pyrazol-4-yl)-4-(1-(2-methylbutyl)-1H-benzo[d][1,2,3]triazol-5-yl)pyrimidin-2-amine]
< 100 | Cn1nccc1Nc1nccc(-c2cnc3c(c2)nnn3CCc2cccc(Cl)c2)n1 [Example 118, 4-(3-(3-chlorophenethyl)-3H-[1,2,3]triazolo[4,5-b]pyridin-6-yl)-N-(1-methyl-1H-pyrazol-5-yl)pyrimidin-2-amine]
< 100 | COC(C)(C)Cn1nnc2cc(-c3ccnc(Nc4ccnn4C)n3)ccc21 [Example 44, 4-(1-(2-methoxy-2-methylpropyl)-1H-benzo[d][1,2,3]triazol-5-yl)-N-(1-methyl-1H-pyrazol-5-yl)pyrimidin-2-amine]
< 100 | CC(C)N1CC(n2nnc3cc(-c4ccnc(Nc5ccnn5C)n4)ccc32)[C@H](c2cc(F)cc(F)c2)C1 (stereo partly drawn) [Example 80]
< 100 | Cc1ccc(Cn2nnc3cc(-c4ccnc(Nc5ccnn5C)n4)ccc32)cn1 [Example 57, N-(1-methyl-1H-pyrazol-5-yl)-4-(1-((6-methylpyridin-3-yl)methyl)-1H-benzo[d][1,2,3]triazol-5-yl)pyrimidin-2-amine]
< 100 | COc1ccc(Cn2nnc3cc(-c4ccnc(N[C@@H](C)CO)n4)ccc32)cc1F [Example 19, (S)-2-((4-(1-(3-fluoro-4-methoxybenzyl)-1H-benzo[d][1,2,3]triazol-5-yl)pyrimidin-2-yl)amino)propan-1-ol]
< 100 | Cn1nccc1Nc1nccc(-c2ccc3c(c2)nnn3[C@@H](CO)c2ccc(Cl)c(F)c2)n1 [Example 94, (R)-2-(4-chloro-3-fluorophenyl)-2-(5-(2-((1-methyl-1H-pyrazol-5-yl)amino)pyrimidin-4-yl)-1H-benzo[d][1,2,3]triazol-1-yl)ethanol]
< 100 | COc1ccc(Cn2nnc3cc(-c4ccnc(Nc5ccnn5C)n4)ccc32)cc1F [Example 113, 4-(1-(3-fluoro-4-methoxybenzyl)-1H-benzol[d][1,2,3]triazol-5-yl)-N-(1-methyl-1H-pyrazol-5-yl)pyrimidin-2-amine]
< 100 | CN1CC(Cn2nnc3cc(-c4ccnc(Nc5ccnn5C)n4)ccc32)C1 [Example 36, N-(1-methyl-1H-pyrazol-5-yl)-4-(1-((1-methylazetidin-3-yl)methyl)-1H-benzo[d][1,2,3]triazol-5-yl)pyrimidin-2-amine]
< 100 | Cn1nccc1Nc1nccc(-c2ccc3c(c2)nnn3C2CNCCC2c2ccc(F)cc2)n1 (stereo not drawn) [Example 90, 4-(1-(4-(4-fluorophenyl)piperidin-3-yl)-1H-benzo[d][1,2,3]triazol-5-yl)-N-(1-methyl-1H-pyrazol-5-yl)pyrimidin-2-amine]
< 100 | CCOCC1(Cn2nnc3cc(-c4ccnc(Nc5ccnn5C)n4)ccc32)CC1 [Example 45, 4-(1-((1-(ethoxymethyl)cyclopropyl)methyl)-1H-benzo[d][1,2,3]triazol-5-yl)-N-(1-methyl-1H-pyrazol-5-yl)pyrimidin-2-amine]
< 100 | COc1ccc(Cn2nnc3cc(-c4ccnc(NCC5CC5)n4)ccc32)cc1F [Example 14, N-(cyclopropylmethyl)-4-(1-(3-fluoro-4-methoxybenzyl)-1H-benzo[d][1,2,3]triazol-5-yl)pyrimidin-2-amine]
< 100 | Cn1ccc(Cn2nnc3cc(-c4ccnc(Nc5ccnn5C)n4)ccc32)n1 [Example 32, 4-(1-((1-methyl-1H-pyrazol-3-yl)methyl)-1H-benzo[d][1,2,3]triazol-5-yl)-N-(1-methyl-1H-pyrazol-5-yl)pyrimidin-2-amine]
< 100 | Cn1nccc1Nc1nccc(-c2ccc3c(c2)nnn3CCCF)n1 [Example 40, 4-(1-(3-fluoropropyl)-1H-benzo[d][1,2,3]triazol-5-yl)-N-(1-methyl-1H-pyrazol-5-yl)pyrimidin-2-amine]
